From publication PMC7312375, “A Novel, Pan-PDE Inhibitor Exerts Anti-Fibrotic Effects in Human Lung Fibroblasts via Inhibition of TGF-β Signaling and Activation of cAMP/PKA Signaling” (International Journal of Molecular Sciences, 2020)

Tests used:
MRC-5 cells [1] = experiment: FBS-induced MRC-5 proliferation, alamarBlue assay; format: cell-based, human; settings: for inhibition at 50 µM: Homo sapiens, MRC5, read-out: inhibition of FBS-induced MRC-5 proliferation rate; for MRC-5 proliferation [% of control]: 48 h with FBS
Method: The normal human lung fibroblast cell line—MRC-5 (ATCC® CCL-171™, Manassas, VA, USA)—was used in the study. Cells were cultured in Eagle’s Minimum Essential Medium (EMEM, ATCC® 30-2003™, Manassas, VA, USA) supplemented with 10% (v/v) fetal bovine serum (FBS; Gibco, Thermo Fisher Scientific, Waltham, MA, USA) and antibiotics mixture (penicillin, streptomycin, amphotericin B; Gibco, Thermo Fisher Scientific, Waltham, MA, USA) (standard culture medium) in standard culture conditions (5% CO2, 37 °C, 95% humidity). Unless otherwise specified, for the experiments, cells were seeded at a final density (5 × 10^3/cm^2) in standard culture medium for 24 h and then cultured in EMEM at reduced serum content (0.5%; v/v) for additional 24 h. TGF-β1 (BD Biosciences, San Jose, CA, USA) was administered at 5 ng/mL concentration in all experiments.
MRC-5 cell viability was evaluated using CytoTox-ONE™ Homogeneous Membrane Integrity Assay (Promega Corporation, Madison, WI, USA) according to the manufacturer’s protocol. The average fluorescence intensity with an excitation wavelength of 560 nm and an emission wavelength of 590 nm was measured using a microplate reader (SpectraMax® iD3, Molecular Devices, San Jose, CA, USA). Experiments were run three times in duplicates. MRC-5 proliferation was determined using the alamarBlue® assay. Cells were seeded for 24 h in standard culture medium, then serum-starved for an additional three days. Evaluated compounds (1-50 µM) were added 1 h prior FBS (10%, v/v) for an additional 48 h. After incubation, the alamarBlue® reagent (Invitrogen, Life Technologies, Carlsbad, CA, USA), dissolved in Hank’s Balanced Salt Solution (10% v/v; Gibco, Thermo Fisher Scientific, Waltham, MA, USA), was added for 30 min. After the observed color change, the supernatant was transferred to 96-well plates, and the absorbance was measured at 570 and 600 nm. The percent difference in reduction between treated and control cells was calculated according to the manufacturer’s protocol. The experiments were run three times in duplicates.

MRC-5 cells [2] = experiment: TGF-β1-induced collagen gel contraction assay; format: cell-based, human; settings: 10 µM, 1 h pre-incubation, 6 h TGF-β1; compared to TGF-β1 alone
Method: A collagen cell contraction assay was performed according to manufactures’ instructions (Cell Biolabs, INC., San Diego, CA, USA). Briefly, MRC-5 was harvested and mixed with a collagen solution. After polymerization, collagen gel lattices were cultured for two days, during which mechanical tension develops. Before releasing the stressed matrix, MRC-5 cells were pre-treated with study compounds (10 µM) for 1 h. Then collagen gels were gently released from the sides of the culture dishes and contraction in the presence of study compounds, and TGF-β1 was initiated. The collagen gel size was monitored at various time points and quantified with the Fiji ImageJ Software (National Institutes of Health, Bethesda, MD, USA, version 1.52q). The experiments were run three times.

[3] = tested on: TGF-β1-induced MRC-5 cells; experiment: Western blot of p-Smad-2; format: cell-based, human; settings: 10 µM, 1 h pre-incubation, TGF-β1 5 ng/mL 1 h
Method: Western Blot analysis was performed according to a standard protocol. Briefly, MRC-5 cells were pre-incubated with the study compounds (10 µM) for 1 h, […] (RIPA Lysis and Extraction Buffer, Thermo Fisher Scientific, Waltham, MA, USA) and supplemented with protease inhibitor cocktail and phosphatase inhibitor cocktail (both from Sigma Aldrich, St. Louis, MO, USA). Equal amounts of protein (30 µg) were separated using 10% SDS-polyacrylamide gels and transferred onto polyvinylidene difluoride (PVDF) membranes (Thermo Fisher Scientific, Waltham, MA, USA). Then membranes were washed with Tris Buffered Saline with Tween 20 (TBST) buffer (150 mM NaCl, 50 mM Tris, 0.05% Tween 20), blocked with 5% skim milk in TBST and incubated overnight with the appropriate primary antibody: rabbit, polyclonal anti-SMAD2 antibody, dilution 1:250, #51-1300 and rabbit, polyclonal anti-phospho-SMAD2 (Ser465, Ser467) antibody, dilution 1:500, #44-244G (both from Thermo Fisher Scientific, Waltham, MA, USA); rabbit, polyclonal anti-CREB1 antibody, dilution 1:500, #orb213777 and rabbit, polyclonal anti-phospho-CREB1 (Ser133) antibody, dilution 1:500, #orb213775 (both from Biorbyt LLC, San Francisco, CA, USA); mouse monoclonal anti-GAPDH antibody, dilution 1:5000, #G8795 (Sigma Aldrich, St. Louis, MO, USA). The next day, after gentle rising, membranes were exposed to secondary, rabbit anti-mouse IgG (whole molecule) peroxidase antibody (#A9044, dilution 1:3000, Sigma Aldrich, St. Louis, MO, USA) and goat anti-rabbit IgG (H+L) peroxidase-conjugated antibody (#32460, dilution 1:3000, Thermo Fisher Scientific, Waltham, MA, USA). Blots were visualized using a chemiluminescence method (Clarity Max™ Western ECL Substrate—Peroxide Solution, BioRad, Hercules, CA, USA) with a C-DiGit® Blot Scanner (LI-COR Biosciences, Lincoln, NE, USA). ROD was measured according to the NIH guidelines with Fiji ImageJ Software. The experiments were run four times.

TRPA1 = biological target: T1, TRPA1 (Homo sapiens, UniProt O75762); experiment: TRPA1 antagonist FLIPR assay (functional, HEK293 cell-based)
T1 construct: host or cells: HEK293
T1 sequence (O75762 whole entry, species assumed): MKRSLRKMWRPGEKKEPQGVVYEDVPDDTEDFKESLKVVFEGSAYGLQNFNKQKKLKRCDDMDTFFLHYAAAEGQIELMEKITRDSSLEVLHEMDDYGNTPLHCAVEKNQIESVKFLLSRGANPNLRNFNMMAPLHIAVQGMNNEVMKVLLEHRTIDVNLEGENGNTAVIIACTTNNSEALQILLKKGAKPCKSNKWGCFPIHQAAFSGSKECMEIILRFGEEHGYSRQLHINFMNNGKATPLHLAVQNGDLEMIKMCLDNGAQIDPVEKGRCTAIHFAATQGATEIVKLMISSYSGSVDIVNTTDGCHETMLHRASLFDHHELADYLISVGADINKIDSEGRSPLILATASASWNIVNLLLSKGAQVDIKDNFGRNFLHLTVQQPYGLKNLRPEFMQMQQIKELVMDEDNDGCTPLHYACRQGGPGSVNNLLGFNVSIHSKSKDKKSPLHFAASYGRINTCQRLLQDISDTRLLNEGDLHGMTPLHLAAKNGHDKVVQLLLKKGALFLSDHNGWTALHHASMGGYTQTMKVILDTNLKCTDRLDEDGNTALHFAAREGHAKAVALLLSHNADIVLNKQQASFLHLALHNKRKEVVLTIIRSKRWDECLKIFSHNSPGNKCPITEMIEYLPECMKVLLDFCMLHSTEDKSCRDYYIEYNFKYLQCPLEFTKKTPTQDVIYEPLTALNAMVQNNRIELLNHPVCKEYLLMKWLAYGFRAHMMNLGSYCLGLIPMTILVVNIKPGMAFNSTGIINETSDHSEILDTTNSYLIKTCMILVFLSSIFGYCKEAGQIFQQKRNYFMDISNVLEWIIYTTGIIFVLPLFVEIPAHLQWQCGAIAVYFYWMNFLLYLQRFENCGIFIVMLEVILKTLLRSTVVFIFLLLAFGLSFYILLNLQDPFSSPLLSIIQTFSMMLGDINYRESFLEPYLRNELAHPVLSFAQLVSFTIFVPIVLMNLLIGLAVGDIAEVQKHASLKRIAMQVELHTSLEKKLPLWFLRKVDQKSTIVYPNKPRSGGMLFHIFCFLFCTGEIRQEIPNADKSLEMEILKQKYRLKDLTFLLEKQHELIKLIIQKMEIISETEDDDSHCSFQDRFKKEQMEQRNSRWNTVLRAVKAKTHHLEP
Method: The TRPA1 agonist and antagonist fluorescent imaging plate reader (FLIPR) Assay (functional, HEK293 cell-based) was performed at Eurofins Panlabs, Inc. (St. Charles, MO, USA). The compounds were prepared in assay buffer to the final dilutions 10 and 50 µM. In each experiment, the respective reference compounds were tested: allyl isothiocyanate (the agonist assay) and ruthenium red (the antagonist assay). The […] assays were conducted on a FLIPR^TETRA instrument where the test compounds, vehicle controls, and reference agonists or antagonists were added to the assay plate after a fluorescence baseline was established. The agonist or antagonist incubation during the assay was for a total of 180 s and was used to assess each compound’s ability to activate or inactivate TRPA1. All plates were subjected to appropriate baseline corrections. Once baseline corrections were processed, maximum fluorescence values were exported, and data was manipulated to calculate percentage activation or percentage inhibition. Results showing activity greater than 25% were considered to represent significant effects of test compounds. Experiments were run three times, […].

TRPA1 Inhibition (% of control) (TRPA1; 10 µM)	TRPA1 Inhibition (% of control) (TRPA1; 50 µM)	Structure (SMILES)	inhibition at 50 µM (MRC-5 cells [1]; 50 µM) [%]	MRC-5 proliferation [% of control] (MRC-5 cells [1]; Table S1 (Figure 2B), 1 µM)	MRC-5 proliferation [% of control] (MRC-5 cells [1]; Table S1 (Figure 2B), 5 µM)	MRC-5 proliferation [% of control] (MRC-5 cells [1]; Table S1 (Figure 2B), 10 µM)	MRC-5 proliferation [% of control] (MRC-5 cells [1]; Table S1 (Figure 2B), 15 µM)	MRC-5 proliferation [% of control] (MRC-5 cells [1]; Table S1 (Figure 2B), 20 µM)	MRC-5 proliferation [% of control] (MRC-5 cells [1]; Table S1 (Figure 2B), 50 µM)	size of collagen gel lattices (TGF-β1-induced contraction) (MRC-5 cells [2])	TGF-β1-induced Smad-2 phosphorylation (immunoblot) [3]	MRC-5 proliferation [% of control] (MRC-5 cells [1]; Table S2 (Figure 5B), 1 µM)	MRC-5 proliferation [% of control] (MRC-5 cells [1]; Table S2 (Figure 5B), 5 µM)	MRC-5 proliferation [% of control] (MRC-5 cells [1]; Table S2 (Figure 5B), 10 µM)	MRC-5 proliferation [% of control] (MRC-5 cells [1]; Table S2 (Figure 5B), 50 µM)
–	–	CC(C)Cn1c(=O)n(C)c(=O)c2[nH]cnc21 [IBMX, 3-isobutyl-1-methyl-3,7-dihydro-1H-purine-2,6-dione, reference compound]	10	102 % of control	99 % of control	98 % of control	100 % of control	95 % of control	90 % of control	restored the size of collagen gel lattices to that of the untreated control	no differences	–	–	–	–
74.9 % of control	98.7 % of control	COc1nc2c(c(=O)n(C)c(=O)n2C)n1CC(=O)Nc1ccc(C(C)(C)C)cc1 [Compound 869, N-(4-(tert-butyl)phenyl)-2-(8-methoxy-1,3-dimethyl-2,6-dioxo-1,2,3,6-tetrahydro-7H-purin-7-yl)acetamide]	25	91 % of control	89 % of control	90 % of control	88 % of control	87 % of control	75 % of control	increased only slightly	no differences	–	–	–	–
12.4 % of control	8.8 % of control	Cn1c(=O)c2c(nc(NCc3ccco3)n2CCCC(=O)NN=Cc2ccc(O)cc2O)n(C)c1=O [Compound 832, N′-(2,4-dihydroxybenzylidene)-4-(8-((furan-2-ylmethyl)amino)-1,3-dimethyl-2,6-dioxo-1,2,3,6-tetrahydro-7H-purin-7-yl)butanehydrazide]	39	93 % of control	87 % of control	85 % of control	82 % of control	83 % of control	61 % of control	increased only slightly	no differences	–	–	–	–

Structure (SMILES)	TRPA1 Inhibition (% of control) (TRPA1; 10 µM)	TRPA1 Inhibition (% of control) (TRPA1; 50 µM)	inhibition at 50 µM (MRC-5 cells [1]; 50 µM) [%]	MRC-5 proliferation [% of control] (MRC-5 cells [1]; Table S1 (Figure 2B), 1 µM)	MRC-5 proliferation [% of control] (MRC-5 cells [1]; Table S1 (Figure 2B), 5 µM)	MRC-5 proliferation [% of control] (MRC-5 cells [1]; Table S1 (Figure 2B), 10 µM)	MRC-5 proliferation [% of control] (MRC-5 cells [1]; Table S1 (Figure 2B), 15 µM)	MRC-5 proliferation [% of control] (MRC-5 cells [1]; Table S1 (Figure 2B), 20 µM)	MRC-5 proliferation [% of control] (MRC-5 cells [1]; Table S1 (Figure 2B), 50 µM)	size of collagen gel lattices (TGF-β1-induced contraction) (MRC-5 cells [2])	TGF-β1-induced Smad-2 phosphorylation (immunoblot) [3]	MRC-5 proliferation [% of control] (MRC-5 cells [1]; Table S2 (Figure 5B), 1 µM)	MRC-5 proliferation [% of control] (MRC-5 cells [1]; Table S2 (Figure 5B), 5 µM)	MRC-5 proliferation [% of control] (MRC-5 cells [1]; Table S2 (Figure 5B), 10 µM)	MRC-5 proliferation [% of control] (MRC-5 cells [1]; Table S2 (Figure 5B), 50 µM)
CCCCOc1nc2c(c(=O)n(C)c(=O)n2C)n1CCCC(=O)Nc1cc(C(C)(C)C)ccc1O [Compound 145, 4-(8-butoxy-1,3-dimethyl-2,6-dioxo-1,2,3,6-tetrahydro-7H-purin-7-yl)-N-(5-(tert-butyl)-2-hydroxyphenyl)butanamide]	12.3 % of control	4.8 % of control	58	104 % of control	91 % of control	84 % of control	74 % of control	72 % of control	42 % of control	restored the size of collagen gel lattices to that of the untreated control	reduced	93 % of control	84 % of control	83 % of control	46 % of control
